pEC50: −log10 of the molar value. Read-outs that look alike come from different tables or passages of the source.
Molecular target: T1, human glucagon-like peptide 1 receptor (Homo sapiens, UniProt P43220)
T1 construct: Full-length human glucagon-like peptide 1 receptor was stably expressed in CHO-K1 cells; expressed in transfected cells; host or cells: CHO-K1 (clone CHO-GLP1R-19)
Assay: Cyclic AMP determination in CHO-K1 cells stably expressing the GLP-1 receptor (cAMP SPA)
Type: cell-based
Conditions: CHO-GLP1R-19 cells, read-out: EC50, stimulation of cAMP production
Protocol: CHO-GLP-1R-19 cells (2,500 in 100 μl of media) were plated into each well of a 96-well tissue culture microtiter plate and incubated in 5% CO2 atmosphere at 37° C., for 72 h. On the day of the assay, cells were washed once with 100 μl of PBS. […] After incubation at room temperature for 15-18 h, plates were counted 2 min each/well in a TopCount NXT(Packard).
The data obtained was processed in Excel-fit database. From a cyclic AMP standard curve, the amounts of released cAMP were determined and the % maximal activity was calculated and plotted against log compound concentration. The data was analyzed by nonlinear regression curve fit (sigmoidal dose) to determine the EC50 of the compounds.

T1 sequence (P43220 24-463): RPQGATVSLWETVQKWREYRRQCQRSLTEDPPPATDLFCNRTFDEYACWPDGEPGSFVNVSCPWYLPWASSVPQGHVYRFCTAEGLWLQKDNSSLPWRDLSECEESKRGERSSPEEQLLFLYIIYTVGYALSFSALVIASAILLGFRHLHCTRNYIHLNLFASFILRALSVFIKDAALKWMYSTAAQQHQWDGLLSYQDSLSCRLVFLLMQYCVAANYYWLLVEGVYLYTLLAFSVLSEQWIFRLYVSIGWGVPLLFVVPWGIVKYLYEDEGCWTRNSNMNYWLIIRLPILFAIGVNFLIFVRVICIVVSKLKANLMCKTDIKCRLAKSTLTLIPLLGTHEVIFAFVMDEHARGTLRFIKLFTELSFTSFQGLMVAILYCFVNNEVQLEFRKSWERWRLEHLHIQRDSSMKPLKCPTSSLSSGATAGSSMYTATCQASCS

## C[C@H](NC(=O)[C@@H](N)Cc1c[nH]cn1)C(=O)N[C@@H](CCC(=O)O)C(=O)NCC(=O)N[C@H](C(=O)N[C@@H](Cc1ccccc1)C(=O)N[C@H](C(=O)N[C@@H](CO)C(=O)N[C@@H](CC(=O)O)C(N)=O)[C@@H](C)O)[C@@H](C)O
Same assay
  pEC50: < 3.00

## C[C@H](NC(=O)[C@@H](N)Cc1cnc[nH]1)C(=O)N[C@@H](CCC(=O)O)C(=O)NCC(=O)N[C@H](C(=O)N[C@@H](Cc1ccccc1)C(=O)N[C@H](C(=O)N[C@@H](CO)C(=O)N[C@@H](CC(=O)O)C(=O)N[C@@H](Cc1ccc(-c2ccccc2)cc1)C(=O)N[C@@H](Cc1ccc(-c2ccccc2)cc1)C(N)=O)[C@@H](C)O)[C@@H](C)O [GLP-1 11-mer peptide analog, His-Ala-Clu-Gly-Thr-Phe-Thr-Ser-Asp-Bip-Bip-NH2]
Determined as in Example 13
  pEC50: 5.96
